The text below walks through data of patent publication US10683327B2, “Compounds, linker-drugs and ligand-drug conjugates” (priority 2015, dated 2020).

Read-outs that look alike come from different tables or passages of the source. Numbered stars: 1 amine (or outer) side, 2 acyl side, 3 side chain; on linkers, the order of the positions; unused ones are H or OH. Square brackets hold non-standard residues; d marks the D form. Peptide text beside a SMILES is read from it. * marks the point of attachment. ξ: configuration not given here. X1 = CC[C@H](C)[C@H]([C@@H](CC(=O)[*:2])OC)N(C)[*:1]; Phe(4-NO2) = N[C@@H](Cc1ccc([N+](=O)[O-])cc1)C(=O)O; Dolaproine = CO[C@@H]([C@@H]1CCCN1)[C@@H](C)C(=O)O; ξDil = CC[C@H](C)C([C@@H](CC(=O)[*:2])OC)N(C)[*:1]; Dil = CC[C@H](C)[C@H](NC)[C@@H](CC(=O)O)OC; Phe(4-NH2) = Nc1ccc(C[C@H](N)C(=O)O)cc1; NMe2Val = CC(C)[C@@H](C(=O)*)N(C)C; X2 = C[C@@H](N*)[C@@H](O)c1ccccc1; NMeV = CN[C@H](C(=O)O)C(C)C; ξF = NC(Cc1ccccc1)C(=O)O; ξV = CC(C)C(N)C(=O)O A value given as a limit tells only on which side of the number the result lay.

This assay deals with FaDu cells. Briefly: Potency of AF derivatives: FaDu cell viability by the MTT method. It counts as cell-based. The following applies: for IC50: exposure to toxins for 120 hours, MTT; for potency in FaDu cells compared with MMAE and auristatin F (AF): statement in words on Table 2. Here is the method: FaDu cells were seeded in Corning CellBIND 96-well plates at densities of 2500 cells/well. […] Then, the cells were rinsed once and assayed for cell viability with the MTT method. The old medium was aspirated and 100 uL of 0.5 mg/mL MTT containing medium was added into each well. After incubation for 4 hours, the MTT reagent was removed and the precipitate was dissolved in DMSO. The photometry intensity of the cells was measured by the microplate reader (Multiskan Ascent, Thermo Labsystems) of absorbance wavelength at 570 nm. Cell viability was calculated by the following equation. Cell Viability (%)=(Ins−Inb)/(Inc−Inb)×100%
In this equation, “Ins” is the photometry intensity of the cells incubated with a given toxin, “Inb” is the intensity of a blank well without cell seeding, and “Inc” is the intensity of the cells incubated with the culture medium only (positive control).

For the setting “n=6”, `CC[C@H](C)C([C@@H](CC(=O)N1CCC[C@H]1[C@H](OC)[C@@H](C)C(=O)NC(Cc1ccc(N)cc1)C(=O)Nc1cnc2ccccc2c1)OC)N(C)C(=O)C(NC(=O)[C@H](C(C)C)N(C)C)C(C)C` (some centres unmarked) [3AQ-AAF] showed an IC50 of 0.49 nM. On to `CC[C@H](C)C([C@@H](CC(=O)N1CCC[C@H]1[C@H](OC)[C@@H](C)C(=O)NC(Cc1ccc(N)cc1)C(=O)Nc1cnc2ccccc2c1)OC)N(C)C(=O)C(NC(=O)[C@H](C(C)C)N(C)C)C(C)C` (some centres unmarked) [3AQ-ANF], for which the “potency in FaDu cells compared with MMAE and auristatin F (AF)” value is given as “comparable to the well-known toxin MMAE”. This compound also returned an IC50 (Homo sapiens, FaDu, 120 h, n=6) of 0.35 nM. `CC[C@H](C)[C@@H]([C@@H](CC(=O)N1CCC[C@H]1[C@H](OC)[C@@H](C)C(=O)N[C@@H](Cc1ccccc1)C(=O)O)OC)N(C)C(=O)[C@@H](NC(=O)[C@H](C(C)C)N(C)C)C(C)C` [AF, auristatin F, reference compound] (NMe2Val-V[Dil][Dolaproine]F-OH): the IC50 (n=6, read-out: IC50) worked out at 15.2 nM. For `CC[C@H](C)[C@H]([C@@H](CC(=O)N1CCC[C@H]1[C@H](OC)[C@@H](C)C(=O)NC(Cc1ccccc1)C(=O)N[C@@H](Cc1ccc(N)cc1)C(=O)O)OC)N(C)C(=O)[C@@H](NC(=O)[C@H](C(C)C)N(C)C)C(C)C` (some centres unmarked) [APEA(COOH)-AF] (NMe2Val-V[X1][Dolaproine][ξF][Phe(4-NH2)]-OH), the “potency in FaDu cells compared with MMAE and auristatin F (AF)” value is on record as “least potency”. The 50% inhibitory concentration (IC50) (Homo sapiens, FaDu, 120 h, n=6) was above 100 nM.

As for `CC[C@H](C)[C@H]([C@@H](CC(=O)N1CCC[C@H]1[C@H](OC)[C@@H](C)C(=O)NC(Cc1ccccc1)C(=O)N[C@@H](Cc1ccc(N)cc1)C(=O)OC)OC)N(C)C(=O)[C@@H](NC(=O)[C@H](C(C)C)N(C)C)C(C)C` (some centres unmarked) [APEA(COOMe)-AF] (NMe2Val-V[X1][Dolaproine][ξF][Phe(4-NH2)]-OMe), the “potency in FaDu cells compared with MMAE and auristatin F (AF)” value was “comparable to the well-known toxin MMAE”. Moreover, where the note is “Homo sapiens, FaDu, 120 h, n=6”, it took 0.93 nM to reach half-maximal inhibition (IC50). `CC[C@H](C)C([C@@H](CC(=O)N1CCC[C@H]1[C@H](OC)[C@@H](C)C(=O)NC(Cc1ccccc1)C(=O)NCCc1ccc(N)cc1)OC)N(C)C(=O)C(NC(=O)[C@H](C(C)C)N(C)C)C(C)C` (some centres unmarked) [APEA-AF]: the “potency in FaDu cells compared with MMAE and auristatin F (AF)” value is recorded as “comparable to the well-known toxin MMAE”. This compound returned a concentration for half-maximal inhibition (IC50) (Homo sapiens, FaDu, 120 h, n=6) of 0.7 nM.

For the compound `CC[C@H](C)[C@@H]([C@@H](CC(=O)N1CCC[C@H]1[C@H](OC)[C@@H](C)C(=O)N[C@H](C)[C@@H](O)c1ccccc1)OC)N(C)C(=O)[C@@H](NC(=O)[C@@H](NC)C(C)C)C(C)C` [MMAE, reference compound] (H-[NMeV]V[Dil][Dolaproine]-X2), the IC50 (n=6, read-out: IC50) was determined as 0.38 nM.

In the case of `CC[C@H](C)C([C@@H](CC(=O)N1CCC[C@H]1[C@H](OC)[C@@H](C)C(=O)NC(Cc1ccccc1)C(=O)N[C@@H](Cc1ccc([N+](=O)[O-])cc1)C(=O)O)OC)N(C)C(=O)C(NC(=O)[C@H](C(C)C)N(C)C)C(C)C` (some centres unmarked) [NPEA(COOH)-AF] (NMe2Val-[ξV][ξDil][Dolaproine][ξF][Phe(4-NO2)]-OH), the IC50 (Homo sapiens, FaDu, 120 h, n=6) was determined as 23.2 nM. In the case of `CC[C@H](C)C([C@@H](CC(=O)N1CCC[C@H]1[C@H](OC)[C@@H](C)C(=O)NC(Cc1ccccc1)C(=O)N[C@@H](Cc1ccc([N+](=O)[O-])cc1)C(=O)OC)OC)N(C)C(=O)C(NC(=O)[C@H](C(C)C)N(C)C)C(C)C` (some centres unmarked) [NPEA(COOMe)-AF] (NMe2Val-[ξV][ξDil][Dolaproine][ξF][Phe(4-NO2)]-OMe), the “potency in FaDu cells compared with MMAE and auristatin F (AF)” value is given as “comparable to the well-known toxin MMAE”. Besides, it took 0.44 nM to reach half-maximal inhibition (Homo sapiens, FaDu, 120 h, n=6) (IC50). Compound `CC[C@H](C)C([C@@H](CC(=O)N1CCC[C@H]1[C@H](OC)[C@@H](C)C(=O)NC(Cc1ccc(N)cc1)C(=O)NCCc1ccccc1)OC)N(C)C(=O)C(NC(=O)[C@H](C(C)C)N(C)C)C(C)C` (some centres unmarked) [PEA-AAF] returned an IC50 (n=6) of 0.39 nM. `CC[C@H](C)C([C@@H](CC(=O)N1CCC[C@H]1[C@H](OC)[C@@H](C)C(=O)NC(Cc1ccc(N)cc1)C(=O)NCCc1ccccc1)OC)N(C)C(=O)C(NC(=O)[C@H](C(C)C)N(C)C)C(C)C` (some centres unmarked) [PEA-ANF]: the “potency in FaDu cells compared with MMAE and auristatin F (AF)” value is given as “comparable to the well-known toxin MMAE”. Where the note is “n=6”, this compound registered a half-maximal inhibitory concentration (IC50) of 1.26 nM.

By IC50 is commonly meant the concentration that inhibits the measured activity by half.
